The values that follow come from patent US12083109B2, “Neurokinin antagonists and uses thereof” (California Institute of Technology, priority 2017, dated 2024).

Entries after “also recorded” stand apart in the source; their conditions may differ.

The target of assay [1] is T1, hM4DREADD in Tac2+ neurons (Homo sapiens, UniProt P08173, A203G/Y113C).
T1 construct: host or cells: Tac2+ neurons of Tac2-Cre mice (dBNSTa, DMH or CeA), transduced in vivo with AAV2-EF1a-DIO-hM4D-mCherry
T1 sequence (P08173 1-479 Y113C/A203G): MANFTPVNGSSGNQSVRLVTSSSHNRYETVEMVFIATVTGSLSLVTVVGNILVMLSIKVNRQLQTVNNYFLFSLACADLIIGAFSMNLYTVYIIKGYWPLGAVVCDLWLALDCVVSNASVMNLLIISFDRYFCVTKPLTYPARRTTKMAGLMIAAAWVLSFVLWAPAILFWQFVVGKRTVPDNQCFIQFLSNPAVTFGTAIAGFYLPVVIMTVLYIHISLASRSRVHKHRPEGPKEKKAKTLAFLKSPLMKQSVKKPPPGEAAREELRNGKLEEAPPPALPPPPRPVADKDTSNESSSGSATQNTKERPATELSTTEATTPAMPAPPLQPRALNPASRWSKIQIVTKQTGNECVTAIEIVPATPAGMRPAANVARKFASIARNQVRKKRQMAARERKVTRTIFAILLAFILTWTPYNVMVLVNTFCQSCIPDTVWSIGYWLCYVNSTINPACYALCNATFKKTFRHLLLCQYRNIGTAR
In words: Resident intruder assay, CNO silencing of Tac2+ neurons (hM4DREADD). The assay is classed as in vivo, mouse. As to conditions: SIS Tac2-Cre mice, hM4DREADD in DMH; CNO 5 mg/kg i.p. The method, then:
Testing for aggression using the resident intruder assay (Blanchard et al., 2003; incorporated by reference in its entirety) was performed as previously described (Hong et al., 2015; Hong et al., 2014; Lee et al., 2014; incorporated by reference in their entirety). Briefly, experimental mice (“residents”) were transported in their homecage to a novel behavior testing room (cagemates in group housed mice were removed from the homecage prior to transport for this and all other behavioral tests), where they acclimated for 5-15 minutes. Homecages were then slotted into a customized behavioral chamber lit with a surround panel of infrared lights and equipped with two synchronized infrared video cameras (Pointgrey) placed at 90-degree angles from each other to allow for simultaneous behavior recording with a front and top view. Synchronized video was acquired using Hunter 4.0 software (custom, Pietro Perona lab, Caltech). […] Fighting bouts were scored on a frame-by-frame basis and were defined as a frame during which the resident male was engaged in an episode of biting or intense aggressive behavior immediately surrounding a biting episode. Annotation files were then batch analyzed for behavior, including number of fighting bouts, using in-house customized programs in MATLAB (A. Kennedy, Caltech). […]

The target of assay [2] is T2, Nk3R (Mus musculus, UniProt P47937).
T2 sequence (P47937 1-452): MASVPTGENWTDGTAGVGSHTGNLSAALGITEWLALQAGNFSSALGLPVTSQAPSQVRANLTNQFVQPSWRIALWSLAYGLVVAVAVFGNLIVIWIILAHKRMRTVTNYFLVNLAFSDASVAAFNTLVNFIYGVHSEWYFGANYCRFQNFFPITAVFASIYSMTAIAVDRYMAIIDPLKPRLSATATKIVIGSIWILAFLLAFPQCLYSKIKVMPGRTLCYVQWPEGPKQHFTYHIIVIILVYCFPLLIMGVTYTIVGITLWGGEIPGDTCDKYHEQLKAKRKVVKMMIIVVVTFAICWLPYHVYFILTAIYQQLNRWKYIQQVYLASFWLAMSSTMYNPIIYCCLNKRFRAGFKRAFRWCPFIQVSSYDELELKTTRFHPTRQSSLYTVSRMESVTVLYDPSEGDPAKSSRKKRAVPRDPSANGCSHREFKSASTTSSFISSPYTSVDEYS
In words: Resident intruder assay (aggression), osanetant. The assay is classed as in vivo. Details: from tissue; host or cells: Living mice (wild-type C57Bl6/N males, Charles River). The method, then:
Testing for aggression using the resident intruder assay (Blanchard et al., 2003; incorporated by reference in its entirety) was performed as previously described (Hong et al., 2015; Hong et al., 2014; Lee et al., 2014; incorporated by reference in their entirety). Briefly, experimental mice (“residents”) were transported in their homecage to a novel behavior testing room (cagemates in group housed mice were removed from the homecage prior to transport for this and all other behavioral tests), where they acclimated for 5-15 minutes. Homecages were then slotted into a customized behavioral chamber lit with a surround panel of infrared lights and equipped with two synchronized infrared video cameras (Pointgrey) placed at 90-degree angles from each other to allow for simultaneous behavior recording with a front and top view. Synchronized video was acquired using Hunter 4.0 software (custom, Pietro Perona lab, Caltech). Following a two-minute baseline period, an unfamiliar male BALB/c mouse (“intruder”) was placed in the homecage of the resident for 10 minutes and mice were allowed to freely interact. Group housed BALB/c males were used as intruders because they are a relatively submissive strain, thereby reducing any intruder-initiated fighting. Behavior videos were hand-annotated by an observer blind to experimental conditions (Behavior Annotator, Piotr's MATLAB toolbox; http://vision.ucsd.edu/˜pdollar/toolbox/doc/). Fighting bouts were scored on a frame-by-frame basis and were defined as a frame during which the resident male was engaged in an episode of biting or intense aggressive behavior immediately surrounding a biting episode. Annotation files were then batch analyzed for behavior, including number of fighting bouts, using in-house customized programs in MATLAB (A. Kennedy, Caltech).
Mice were administered the Nk3R antagonist osanetant (Axon Medchem, Axon 1533) either systemically or intra-brain region. Osanctant was dissolved in saline with 0.1% Tween 20 (vehicle). For systemic administration mice received an intraperitoneal (i.p.) injection (5 mg/kg) 20 minutes prior to behavioral testing. For microinfusions, guide cannulas were removed from mice and replaced with injector cannulas (Plastics One), which protruded 0.5 mm from the tip of the guide cannula. Injectors were attached to 5 μl Hamilton syringes with PE tubing (Plastics One) and mounted on a microinfusion pump (Harvard Apparatus) for controlled infusion of osanetant (0.3 μl vehicle with 375 ng dose per site injected over 6 minutes). For experiments using systemic administration of clozapine-N-oxide (CNO), CNO (Enzo Life Sciences-Biomol, BML-NS105-0005) was dissolved in saline (9 g/L NaCl) and injected (i.p.) at 5 mg/kg for hM4DREADD silencing or 2 mg/kg for hM3DREADD activation 20 minutes prior to behavioral testing. CNO was also administered chronically in drinking water (0.5 mg CNO/100 ml water).

With `C[N+]1([O-])CCN(C2=Nc3cc(Cl)ccc3Nc3ccccc32)CC1` [CNO, clozapine-N-oxide], the aggression result in assay [1] is reported as “blocked; also recorded: inhibited”.

For `CC(=O)N(C)C1(c2ccccc2)CCN(CCC[C@]2(c3ccc(Cl)c(Cl)c3)CCCN(C(=O)c3ccccc3)C2)CC1` [osanetant, N-(1-{3-[(3R)-1-benzoyl-3-(3,4-dichlorophenyl)piperidin-3-yl]propyl}-4-phenylpiperidin-4-yl)-N-methylacetamide], the “aggression promoted by sexual experience” value in assay [2] (2 weeks co-habitation with a female, no isolation, systemic osanetant) was “had no effect”. The SIS-enhanced aggression entry in assay [2] (SIS mice (2 weeks isolation), osanetant 5 mg/kg i.p. 20 min before test) is “blocked”; in assay [2] (SIS mice (2 weeks isolation), osanetant 5 mg/kg i.p. 20 min before test, listed as Osanetant) it was “strongly reduced”; in assay [2] (osanetant daily during two-week isolation, tested off-drug) it was “prevented”. Besides, the aggression result in assay [2] (osanetant injection into CeA) was “unaffected”. Moreover, the SIS-induced aggression result is reported as “abolished” in assay [2] (osanetant microinfusion into DMH); “selectively blocked” in assay [2] (osanetant microinfusion into DMH, listed as Osanetant); “no effect” in assay [2] (osanetant microinfusion into dBNSTa).
